Values of other authors, collected in US4127525A, “Novel tridecapeptides, intermediates therefor, and compositions and methods employing said tridecapeptides” (priority 1977, dated 1978).

Columns and labels:
[1] = test system: partially purified brain opiate receptor sites; details: natural peptide
rat = details: injected directly into the brain of the rat

In the case of “H-Tyr-Gly-Gly-Phe-Met-OH [methionine enkephalin]”, the “binding to partially purified brain opiate receptor sites” value [1] is given as “binds stereo-specifically” and the analgesic activity (rat) is given as “only weak analgesic agent of short duration”.
